Experimental data reported in publication PMC3016297 (Bioorganic & medicinal chemistry, 2010).
pEC50, pIC50: −log10 of the molar value. Like-named read-outs stand apart in the source and are kept apart here.

Experiments:
HIV-1NL4-3 = HIV-1NL4-3 inhibition assay in MT-4 lymphocytes; format: cell-based; conditions: HIV-1NL4-3 infected MT-4 cells; for fold more active than the corresponding compound not linked to AZT: 49 vs 63, 52 vs 64
HIV-1IIIB = conditions: cited from earlier work; for pEC50: HIV-1IIIB infected H9 lymphocytes
mock-infected MT-4 cell [1] = conditions: read-out: IC50, concentration that inhibits mock-infected MT-4 cell growth by 50%; mock-infected MT-4 cells; cited from earlier work
mock-infected MT-4 cell [2] = test: Growth inhibition of mock-infected MT-4 cells; format: cell-based; conditions: Homo sapiens, MT4, read-out: IC50, concentration that inhibits mock-infected MT-4 cell growth by 50%

C=C(C)[C@@H]1CC[C@]2(COC(=O)CC(C)(C)CC(=O)OC[C@H]3O[C@@H](n4cc(C)c(=O)[nH]c4=O)C[C@@H]3N=[N+]=[N-])CC[C@]3(C)[C@H](CC[C@@H]4[C@@]5(C)CC[C@H](OC(=O)CC(C)(C)CC(=O)O)C(C)(C)[C@@H]5CC[C@]43C)[C@@H]12 [Compound 54, 3'-Azido-3'-deoxythymidine-5'-yl 3-O-(3',3'-dimethylglutaryl)-lup-20(29)en-28-yl 3,3-dimethylglutarate]
anti-HIV activity in words (HIV-1NL4-3): only moderate activity

C=C(C)[C@@H]1CC[C@]2(COC(=O)CCC(=O)OC[C@H]3O[C@@H](n4cc(C)c(=O)[nH]c4=O)C[C@@H]3N=[N+]=[N-])CC[C@]3(C)[C@H](CC[C@@H]4[C@@]5(C)CC[C@H](OC(=O)CC(C)(C)C(=O)O)C(C)(C)[C@@H]5CC[C@]43C)[C@@H]12 [Compound 49, 3'-Azido-3'-deoxythymidine-5'-yl 3-O-(3',3'-dimethylsuccinyl)-lup-20(29)en-28-yl succinate]
fold more active than the corresponding compound not linked to AZT (HIV-1NL4-3): four

C=C(C)[C@@H]1CC[C@]2(COC(=O)CCCC(=O)OC[C@H]3O[C@@H](n4cc(C)c(=O)[nH]c4=O)C[C@@H]3N=[N+]=[N-])CC[C@]3(C)[C@H](CC[C@@H]4[C@@]5(C)CC[C@H](OC(=O)CC(C)(C)C(=O)O)C(C)(C)[C@@H]5CC[C@]43C)[C@@H]12 [Compound 52, 3'-Azido-3'-deoxythymidine-5'-yl 3-O-(3',3'-dimethylsuccinyl)-lup-20(29)en-28-yl glutarate]
fold more active than the corresponding compound not linked to AZT (HIV-1NL4-3): five

CC(C)[C@@H]1CC[C@]2(CO)CC[C@]3(C)[C@H](CC[C@@H]4[C@@]5(C)CC[C@H](OC(=O)CCCC(=O)O)C(C)(C)[C@@H]5CC[C@]43C)[C@@H]12 [Compound 4, 3-O-glutaryldihydrobetulin]
pEC50 (HIV-1IIIB): 10.70

C=C(C)[C@@H]1CC[C@]2(C(=O)O)CC[C@]3(C)[C@H](CC[C@@H]4[C@@]5(C)CC[C@H](OC(=O)CC(C)(C)C(=O)O)C(C)(C)[C@@H]5CC[C@]43C)[C@@H]12 [Compound 2, 3-O-(3',3'-dimethylsuccinyl)betulinic acid]
pIC50 (mock-infected MT-4 cell [1]): < 5.30 | pEC50 (HIV-1IIIB): > 9.46

C=C(C)[C@@H]1CC[C@]2(COC(=O)C(C)(C)CC(=O)O)CC[C@]3(C)[C@H](CC[C@@H]4[C@@]5(C)CC[C@H](OC(=O)CC(C)(C)C(=O)O)C(C)(C)[C@@H]5CC[C@]43C)[C@@H]12 [Compound 6, 3-O-(3',3'-dimethylsuccinyl)-28-O-(2",2"-dimethylsuccinyl)betulin]
fold more potent against HIV replication than its isomer with a 3,3-dimethylsuccinyl side chain at C-28 (HIV-1IIIB; H9 lymphocytes assay): 230 fold | pEC50 (HIV-1IIIB): 9.06

Cc1cn([C@H]2C[C@H](N=[N+]=[N-])C(COC(=O)CC(C)(C)CC(=O)OC[C@]34CC[C@@H](C(C)C)[C@@H]3[C@H]3CC[C@@H]5[C@@]6(C)CC[C@H](OC(=O)CC(C)(C)CC(=O)O)C(C)(C)[C@@H]6CC[C@@]5(C)[C@]3(C)CC4)O2)c(=O)[nH]c1=O (stereo partly drawn) [Compound 62, 3'-Azido-3'-deoxythymidine-5'-yl 3-O-(3',3'-dimethylglutaryl)-lup-28-yl 3,3-dimethylglutarate]
anti-HIV activity in words (HIV-1NL4-3): only moderate activity

C=C(C)[C@@H]1CC[C@]2(COC(=O)CC(C)(C)CC(=O)O)CC[C@]3(C)[C@H](CC[C@@H]4[C@@]5(C)CC[C@H](OC(=O)CC(C)(C)CC(=O)O)C(C)(C)[C@@H]5CC[C@]43C)[C@@H]12 [Compound 5, 3,28-di-O-(3',3'-dimethylglutaryl)betulin]
pEC50 (HIV-1IIIB): 9.18

Cc1cn([C@H]2C[C@H](N=[N+]=[N-])C(COC(=O)CC(C)(C)CC(=O)OC[C@]34CC[C@@H](C(C)C)[C@@H]3[C@H]3CC[C@@H]5[C@@]6(C)CC[C@H](OC(=O)CCCC(=O)O)C(C)(C)[C@@H]6CC[C@@]5(C)[C@]3(C)CC4)O2)c(=O)[nH]c1=O (stereo partly drawn) [Compound 61, 3'-Azido-3'-deoxythymidine-5'-yl 3-O-glutaryl-lup-28-yl 3,3-dimethylglutarate]
anti-HIV activity in words (HIV-1NL4-3): the weakest compound

C=C(C)[C@@H]1CC[C@]2(COC(=O)CCCC(=O)O)CC[C@]3(C)[C@H](CC[C@@H]4[C@@]5(C)CC[C@H](OC(=O)CC(C)(C)C(=O)O)C(C)(C)[C@@H]5CC[C@]43C)[C@@H]12 [Compound 64]
pIC50 (mock-infected MT-4 cell [2]): < 4.84
